Tested on in one experiment: not listed separately
As to the kind of experiment: Inhibition of His-tagged recombinant NS5B Cdelta 21 polymerase expressed in Escherichia coli DH5alpha by standard primer dependent elongation assay. Also noted: species or system Hepacivirus hominis.
In the case of `O=C(O)CN1C(=O)/C(=C/c2ccc(C(F)(F)F)cc2)SC1=S`, the IC50 is 55.2 µM.
Same read-out and setting: the value for `O=C(O)CN1C(=O)/C(=C/c2cccc(Oc3ccccc3)c2)SC1=S` was 7.7 µM.
On the same count and under the same terms, the value for `O=C1/C(=C/c2ccc(Cl)c(Cl)c2)SC(=S)N1NS(=O)(=O)c1ccccc1` was 0.2 µM.
Still for that read-out and setting: then `CC(C(=O)O)N1C(=O)/C(=C/c2ccc(Cl)cc2Cl)SC1=S` (centres undefined), with 13.3 µM; and `CC(C(=O)O)N1C(=O)/C(=C/c2cccc3ccccc23)SC1=S` (centres undefined), with 68.1 µM; and `O=C(O)CCCN1C(=O)/C(=C/c2ccc(Cl)cc2Cl)SC1=S`, with 58 µM.
As for `O=C(O)CN1C(=O)/C(=C/c2ccc(Cl)cc2Cl)SC1=S`, the IC50 came out at 17.9 µM.
Still for that read-out and setting: then `O=C(O)c1ccc2c(c1)C(=O)N(c1cccc(O)c1)C2=O`, with 200 µM; and `O=C(O)CN1C(=O)/C(=C/c2ccccc2[N+](=O)[O-])SC1=S`, with 16.2 µM; and `CC(C)C(C(=O)O)N1C(=O)/C(=C/c2cccc3ccccc23)SC1=S` (centres undefined), with 16.9 µM.
Same read-out and setting: the value for `O=C(O)CN1C(=O)/C(=C/c2cccc3ccccc23)SC1=S` was 61.4 µM.
The same measure, in the same setting: the value for `O=C(O)CN1C(=O)/C(=C/c2cccc(Br)c2)SC1=S` was 20.2 µM; that for `CSCCC(C(=O)O)N1C(=O)/C(=C/c2ccc(Cl)cc2Cl)SC1=S` (centres undefined) was 29.2 µM.
Consider `O=C(O)CN1C(=O)/C(=C/c2cccc(C(F)(F)F)c2)SC1=S`, for which the IC50 was 50.9 µM.
On the same count and under the same terms, the value for `O=C(O)CN1C(=O)/C(=C/c2ccc(Cl)c(Cl)c2)SC1=S` was 8.4 µM; that for `CC(C)CC(C(=O)O)N1C(=O)/C(=C/c2ccc(Cl)cc2Cl)SC1=S` (centres undefined) was 18.9 µM; that for `CC(C)C(C(=O)O)N1C(=O)/C(=C/c2ccc(F)cc2)SC1=S` (centres undefined) was 42.9 µM.
Still for that read-out and setting: the value for `O=C(O)CN1C(=O)/C(=C/c2ccc([N+](=O)[O-])cc2)SC1=S` was 21.9 µM.
Still for that read-out and setting: then `O=C(O)CCCCCN1C(=O)/C(=C/c2ccc(Cl)cc2Cl)SC1=S`, with 16.1 µM.
In the case of `O=C(O)CN1C(=O)/C(=C/c2ccc(F)cc2)SC1=S`, the IC50 turned out to be 42.1 µM.
The same measure, in the same setting: then `CCCC(C(=O)O)N1C(=O)/C(=C/c2ccc(Cl)cc2Cl)SC1=S` (centres undefined), with 28.2 µM; and `CC(C)C(C(=O)O)N1C(=O)/C(=C/c2ccccc2Cl)SC1=S` (centres undefined), with 36.1 µM.
Still for that read-out and setting: the value for `O=C(O)CN1C(=O)/C(=C/c2cccc(Cl)c2)SC1=S` was 18.4 µM.
The same measure, in the same setting: the value for `O=C1/C(=C/c2ccc(Cl)cc2Cl)SC(=S)N1CCS(=O)(=O)O` was 23.5 µM; that for `N#Cc1nc(-c2ccccc2)c(-c2ccccc2)nc1C#N` was 250 µM.
`O=c1oc2ccccc2c2c1ncn2-c1ccccc1`: the IC50 stood at 60.2 µM.
Regarding `O=C(O)CCN1C(=O)/C(=C/c2ccc(Cl)cc2Cl)SC1=S`, the IC50 was 19.9 µM.
On the same count and under the same terms, then `CC(C)C(C(=O)O)N1C(=O)/C(=C/c2ccc(Cl)cc2Cl)SC1=S` (centres undefined), with 14.1 µM; and `CCc1ccc(/C=C2\SC(N[C@@H](C(=O)O)c3ccc(F)cc3)=NC2=O)o1` (stereo in doubt) [VALEANT], with 3 µM.
Still for that read-out and setting: the value for `O=C(O)C(Cc1ccccc1)N1C(=O)/C(=C/c2ccc(Cl)cc2Cl)SC1=S` (centres undefined) was 10.6 µM.

For a further experiment, the system named is Hepacivirus hominis. Nature of the experiment: Inhibition of His-tagged recombinant NS5B Cdelta 21 polymerase expressed in Escherichia coli DH5alpha at 250 uM by standard primer dependent elongation assay relative to control.
In the case of `O=C(O)CN1C(=O)/C(=C/c2ccc(C(F)(F)F)cc2)SC1=S`, the inhibition was determined as 71%.
Regarding `O=C(O)c1ccc2c(c1)C(=O)N(c1cccc(O)c1)C2=O`, the inhibition is 55%.
Take `N#Cc1nc(-c2ccccc2)c(-c2ccccc2)nc1C#N`: the inhibition was 48.6%.
In the case of `O=c1oc2ccccc2c2c1ncn2-c1ccccc1`, the inhibition amounted to 62.5%.

What is called IC50 is the point on the concentration scale where inhibition reaches its midpoint. As a reminder, the inhibition is the drop in the measured response relative to a control, in per cent.
